Source: patent US10934263B2, “Charged ion channel blockers and methods for use” (Nocion Therapeutics, Inc., priority 2019, dated 2021)

What was measured:
NaV1.7 [1] = molecular target: T1, NaV1.7 (Homo sapiens, UniProt Q15858); assay: Whole cell patch clamp, internal block of NaV1.7 current (compound in internal solution); format: cell-based; details: compound applied internally, manual patch clamp, read-out: Nav1.7 Intracellular Inhibition
T1 construct: expressed in transfected cells; tetracycline-inducible, kept under hygromycin and blasticidin
In short: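 Tetracycline-induced NaV1.7 cells, whole-cell patch clamp at room temperature with compound in CsCl internal solution (pH 7.2), Ringer bath (pH 7.4). Held at −100 mV, steps to −20 mV; after baseline, four 30-s 5 Hz trains. Peak inward current at end of last train divided by baseline gives fraction remaining.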

NaV1.7 [2] = molecular target: T1, NaV1.7; assay: Whole cell patch clamp, external block of NaV1.7 current (compound in external solution); format: cell-based; details: compound applied externally, read-out: Nav1.7 Extracellular Inhibition; for inhibition at 30 µM: % inhibition at test concentration 30 μM
Description: Representative compounds of the invention were synthesized according to the described methods and tested for the ability to inhibit voltage-gated sodium channels.
NaV1.7 was expressed upon induction with tetracycline. Cells were cultured in DMEM containing 10% dialyzed Fetal Bovine Serum (VWR, Radnor, Pa.), 1% Glutamax (VWR, Radnor, Pa.), 1% Penicillin-Streptomycin (VWR, Radnor, Pa.), 100 mg/L Hygromycin (Thermo Fisher Scientific, Waltham, Mass. and 5 mg/L Blasticidin (Alfa Aesar, Haverhill, Mass.). Cells were grown and maintained at 37° C. in a humidified environment containing 10% CO2 in air. Cells were detached from the culture flask for passage and harvested using 0.05% Trypsin-EDTA (Thermo Fisher Scientific, Waltham, Mass.). To induce NaV1.7, cells were induced with tetracycline (0.1-1 μg/mL, IBI Scientific, Peosta, Iowa) the day before recording and plated onto 24-well plates. Cells were washed with DPBS (VWR, Radnor, Pa.), trypsinized and then triturated five times in 10 mL of growth media to break apart cell aggregates. For one 24-well plate, 2 mL of cell suspension was mixed with 23 mL of fresh growth media and 0.1-1 μg/mL tetracycline added. 1 ml of mixed media with cells was then added to each well of a 24-well plate, with a 12 mm coverslip already placed in the bottom of the well. Cells were then incubated in 37° C. and 10% CO2 overnight.
The intracellular solution contained the following (in mM) CsCl 135, NaCl 10, EGTA 10, HEPES 10, MgCl2 2, adjusted to pH 7.2 with CsOH. The external solution was a normal Ringer solution containing (in mM) NaCl 155, HEPES 10, glucose 10, KCl 3.5, CaCl2 1.5, MgCl2 1 adjusted to pH 7.4 with NaOH. CsCl is from Alfa Aesar, Haverhill, Mass. All other chemicals are from Sigma-Aldrich, St. Louis, Mo. In order to test the degree of internal block by test compounds the compounds were dissolved in internal solution at the indicated test concentration. […] In order to test the degree of external block by test compounds the compounds were dissolved in external solution at the indicated test concentration.
18-24 hours after cells were induced with tetracycline, coverslips were placed into a chamber filled with Normal Ringer solution at room temperature and the chamber placed on a microscope. Pipettes were pulled from borosilicate glass on a P97 puller (Sutter Instrument, Novato, Calif.) and polished with a MF-830 Microforge (Narishige International USA, Inc, Amityville, N.Y.) to have a resistance of 1.5-2.5 MΩ when filled with CsCl internal solution at room temperature. Healthy cells (those that are round and translucent with no visible blemishes) were chosen for seal formation. A seal was formed between the pipette and the cell, and a brief pulse of suction was used to “break in” and establish the whole-cell configuration. The membrane potential was held at −100 mV before the voltage protocol began. Only cells with series resistance between 1.5-5 MΩ were retained for analysis. The voltage protocol was as follows: Cells were held at −100 mV for 12 ms followed by a hyperpolarizing step to −105 mV for 12 ms to monitor the leak. Cells were then stepped back to −100 mV for 40 ms. Cells were then depolarized to −20 mV for 10 ms and then returned to −100 mV for 26 ms.
Once the recording was started, the voltage protocol was run at 30 second intervals for 5 minutes to get a stable baseline. This is followed by 5 Hz stimulation of the same voltage protocol run until the end of experiment. […] The test compound is added for 5 minutes before washing out with normal Ringer's solution. Currents were recorded using PatchMaster software with Heka EPC10 (HEKA Electronics, Lambrecht, Germany). Only cells with inward current amplitudes at −20 mV between 400 pA and 4 nA were accepted. In addition, cells having leak currents greater than 10% of their current amplitudes were discarded. […]

[3] = PAMPA membrane permeability assay; format: in vitro ADME; details: PAMPA permeability coefficient, GIT lipid, buffer pH 7.4, 4 hours incubation
In short: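 Passive permeability across GIT lipid-coated artificial membrane; compounds at 50 μM in pH 7.4 buffer in donor wells, incubated 4 h. Donor, acceptor and reference concentrations read by UV spectroscopy, permeability coefficient calculated from spectral AUCs.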

T1 sequence (Q15858 whole entry): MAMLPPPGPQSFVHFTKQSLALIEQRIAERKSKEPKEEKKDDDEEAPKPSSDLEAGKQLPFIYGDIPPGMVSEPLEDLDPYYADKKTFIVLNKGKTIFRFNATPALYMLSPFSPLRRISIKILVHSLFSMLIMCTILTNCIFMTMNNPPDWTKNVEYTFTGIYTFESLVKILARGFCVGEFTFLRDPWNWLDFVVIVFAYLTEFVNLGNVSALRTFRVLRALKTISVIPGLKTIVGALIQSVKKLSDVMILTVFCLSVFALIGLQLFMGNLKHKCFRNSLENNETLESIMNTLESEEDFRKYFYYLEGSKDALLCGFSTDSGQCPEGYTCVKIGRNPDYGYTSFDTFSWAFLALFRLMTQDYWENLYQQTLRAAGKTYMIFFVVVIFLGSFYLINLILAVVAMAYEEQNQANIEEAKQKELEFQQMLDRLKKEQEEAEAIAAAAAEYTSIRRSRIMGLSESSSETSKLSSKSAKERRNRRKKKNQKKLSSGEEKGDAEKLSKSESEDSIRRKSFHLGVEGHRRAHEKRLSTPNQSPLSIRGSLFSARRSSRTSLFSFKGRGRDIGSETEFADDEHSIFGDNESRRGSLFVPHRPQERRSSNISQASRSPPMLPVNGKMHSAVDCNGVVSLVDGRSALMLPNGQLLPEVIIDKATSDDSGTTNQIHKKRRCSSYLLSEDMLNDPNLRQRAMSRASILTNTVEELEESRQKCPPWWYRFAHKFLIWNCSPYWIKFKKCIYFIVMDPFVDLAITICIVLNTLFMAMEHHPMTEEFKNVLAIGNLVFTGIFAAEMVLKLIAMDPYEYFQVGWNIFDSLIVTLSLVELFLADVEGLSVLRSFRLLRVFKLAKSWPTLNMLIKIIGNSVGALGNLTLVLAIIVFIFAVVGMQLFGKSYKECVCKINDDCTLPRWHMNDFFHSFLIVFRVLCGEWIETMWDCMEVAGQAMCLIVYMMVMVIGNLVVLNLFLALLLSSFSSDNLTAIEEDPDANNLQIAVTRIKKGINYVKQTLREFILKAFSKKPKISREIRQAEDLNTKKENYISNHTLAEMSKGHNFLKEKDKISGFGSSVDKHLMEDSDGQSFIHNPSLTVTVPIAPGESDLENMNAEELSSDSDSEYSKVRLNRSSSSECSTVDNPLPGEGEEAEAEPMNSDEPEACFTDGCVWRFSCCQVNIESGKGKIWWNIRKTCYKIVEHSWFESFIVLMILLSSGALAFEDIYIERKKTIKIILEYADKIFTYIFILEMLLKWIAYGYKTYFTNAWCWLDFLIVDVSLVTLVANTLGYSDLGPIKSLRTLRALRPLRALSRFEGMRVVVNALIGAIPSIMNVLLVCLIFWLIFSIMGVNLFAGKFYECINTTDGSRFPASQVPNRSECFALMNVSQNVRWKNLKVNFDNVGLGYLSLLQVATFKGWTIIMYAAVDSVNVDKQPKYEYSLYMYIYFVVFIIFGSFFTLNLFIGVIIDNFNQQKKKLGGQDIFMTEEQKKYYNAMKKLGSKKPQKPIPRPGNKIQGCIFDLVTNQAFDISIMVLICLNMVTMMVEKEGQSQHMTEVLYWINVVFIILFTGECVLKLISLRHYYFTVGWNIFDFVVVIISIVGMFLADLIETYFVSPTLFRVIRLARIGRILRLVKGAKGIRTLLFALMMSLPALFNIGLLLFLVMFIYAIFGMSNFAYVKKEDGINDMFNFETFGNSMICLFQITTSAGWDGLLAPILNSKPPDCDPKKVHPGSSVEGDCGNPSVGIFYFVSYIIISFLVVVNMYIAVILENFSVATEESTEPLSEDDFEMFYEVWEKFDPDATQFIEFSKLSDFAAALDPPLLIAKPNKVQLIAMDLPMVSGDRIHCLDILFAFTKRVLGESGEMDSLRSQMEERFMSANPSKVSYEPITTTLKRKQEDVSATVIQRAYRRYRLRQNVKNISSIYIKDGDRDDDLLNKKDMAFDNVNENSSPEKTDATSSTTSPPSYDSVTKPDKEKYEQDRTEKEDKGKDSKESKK

| Compound | inhibition at 10 µM (NaV1.7 [1]) [%] | inhibition at 32 µM (NaV1.7 [1]) [%] | inhibition at 30 µM (NaV1.7 [2]) [%] | PAMPA (10^−6 cm/s) [3] | inhibition at 1000 µM (NaV1.7 [2]; % inhibition at test concentration 1,000 μM) [%] | inhibition at 100 µM (NaV1.7 [2]; % inhibition at test concentration 100 μM) [%] |
| --- | --- | --- | --- | --- | --- | --- |
| CCc1cccc[n+]1CC(=O)Nc1c(C)cccc1C.[Br-] [Compound 13A] | – | 70 to 95 | < 40 | + (<0.1 10^−6 cm/s) | – | – |
| Cc1cccc(C)c1NC(=O)C[n+]1c(C)cccc1C.[Br-] [Compound 6A, 1-(2-((2,6-dimethylphenyl)amino)-2-oxoethyl)-2,6-dimethylpyridin-1-ium bromide] | – | > 95 | – | ++ (0.1-2.0 10^−6 cm/s) | 40 to 70 | – |
| Cc1cccc(C)c1NC(=O)C[n+]1cccc(-c2ccccc2)c1.[Br-] [Compound 12A, 1-(2-((2,6-dimethylphenyl)amino)-2-oxoethyl)-3-phenylpyridin-1-ium bromide] | > 95 | > 95 | < 40 | + (<0.1 10^−6 cm/s) | – | – |

The next lines start with the values.

| inhibition at 10 µM (NaV1.7 [1]) [%] | inhibition at 32 µM (NaV1.7 [1]) [%] | inhibition at 30 µM (NaV1.7 [2]) [%] | PAMPA (10^−6 cm/s) [3] | inhibition at 1000 µM (NaV1.7 [2]; % inhibition at test concentration 1,000 μM) [%] | inhibition at 100 µM (NaV1.7 [2]; % inhibition at test concentration 100 μM) [%] | Compound |
| --- | --- | --- | --- | --- | --- | --- |
| 70 to 95 | 70 to 95 | < 40 | + (<0.1 10^−6 cm/s) | – | – | CCc1ccc[n+](CC(=O)Nc2c(C)cccc2C)c1.[Br-] [Compound 17A] |
| 70 to 95 | – | 40 to 70 | + (<0.1 10^−6 cm/s) | – | – | CCOC(=O)c1ccc[n+](CC(=O)Nc2c(C)cccc2C)c1.[Br-] [Compound 25A] |
| > 95 | > 95 | – | ++ (0.1-2.0 10^−6 cm/s) | – | < 40 | Cc1cccc(C)c1NC(=O)C[n+]1ccccc1-c1ccccc1.[Br-] [Compound 16A] |
